Results published in patent US20260115237A1, “PROBIOTIC COMPOSITION FOR PREVENTING AND TREATING ANTI-TUMOR TREATMENT-RELATED DIARRHEA AND USE THEREOF” (SICHUAN ANAEROBIC BIOTECHNOLOGY CO., LTD., priority 2023, published 2026).
“Also recorded” adds a separate entry of the source.

Key:
Type in all cases: in vivo
[1] = system: mice with 5-FU-induced diarrhea; test: Diarrhea scoring, mice with 5-FU-induced diarrhea (CID model); conditions: 20 mg/kg i.g.; 5-FU model
Method: Pdist-1, Lferm-1, Lsali-1, Eaviu-1, and Bbifi-1 were each inoculated into the corresponding bacterial powder preparation medium, and then anaerobically cultured at 37° C. and 90 rpm for 16-24 h to obtain a primary seed solution. Subsequently, the five primary seed solutions were each transferred to the corresponding bacterial powder preparation medium, and then anaerobically cultured at 37° C. and 90 rpm for 10-15 h to obtain a secondary seed solution. The five secondary seed solutions were each pumped into a fermenter containing the corresponding bacterial powder preparation medium using a peristaltic pump, and then subjected to fermentation culture. After the fermentation was stopped, the bacterial cells of each strain were collected by centrifugation. Each corresponding lyoprotectant was added according to a weight ratio of the bacterial sludge to the lyoprotectant of 1:1 to 1:2, and the mixture was well mixed to emulsify the bacterial sludge. Each bacterial sludge was lyophilized and pulverized to obtain a bacterial powder. An appropriate amount of each pulverized bacterial powder was taken for determination of viable count. The bacterial powders of the strains were mixed at equal CFU concentrations based on the viable counts to obtain a bacterial composition powder. Finally, the bacterial composition powder was prepared into a bacterial suspension using normal saline for an animal experiment. The bacterial suspension was diluted with normal saline to obtain bacterial compositions with different bacterial doses. […]
During the experimental period, the body weight of the animals was measured daily, and general observations were recorded (the observation items included but were not limited to the animals' appearance signs, behaviors and activities, respiration, glandular secretion, fecal condition, etc.). The diarrhea condition of each animal after modeling was specifically observed and then recorded and scored. […]

[2] = system: IL-1β; test: qPCR of colon tissue, 5-FU-induced diarrhea mice; conditions: 20 mg/kg i.g.; 5-FU model
Text: (§1) (1) Experimental design: Ninety-six SPF-grade male Balb/c mice weighing 22-24 g (purchased from Beijing Vital River Laboratory Animal Technology Co., Ltd.) were housed in an SPF-grade animal room. Based on the initial body weight, the mice were randomly divided into 8 groups of 12: a normal control group, a model control group, a positive control loperamide group, a positive control Zhengchangsheng group, a high-dose bacterial composition group, a medium-high-dose bacterial composition group, a medium-dose bacterial composition group, and a low-dose bacterial composition group. The aforementioned 8 groups were intragastrically given normal saline (0.2 mL/mouse/day), lyoprotectant (0.2 mL/mouse/day), loperamide (purchased from Henan Zhongjie Pharmaceutical Co., Ltd., 20 mg/kg body weight/mouse/day), Zhengchangsheng (containing viable Bacillus licheniformis, Northeast Pharmaceutical Group Co., Ltd., 2×10^8 CFU/mouse/day), high-dose bacterial composition (1×10^9 CFU/mouse/day), medium-high-dose bacterial composition (1×10^8 CFU/mouse/day), medium-dose bacterial composition (1×10^7 CFU/mouse/day), and low-dose bacterial composition (1×10^6 CFU/mouse/day), respectively. The overall experimental period was 9 days, designated as D1 to D9. Intragastric administration was performed for 8 consecutive days from D1 to D8. Modeling was started on D3. The mice in the normal control group received abdominal injection of normal saline at 0.2 mL/mouse, while the mice in all other groups were intraperitoneally injected with 5-FU (5-fluorouracil, purchased from Tianjin Pharma Heping (Tianjin) Pharmaceutical Co., Ltd.; specification: 10 mL/vial, 0.25 g/10 mL) at 30 mg/kg body weight for 4 consecutive days to induce a CID mouse model. The mice were dissected on D9.
(§2) During the experimental period, the body weight of the animals was measured daily, and general observations were recorded (the observation items included but were not limited to the animals' appearance signs, behaviors and activities, respiration, glandular secretion, fecal condition, etc.). The diarrhea condition of each animal after modeling was specifically observed and then recorded and scored. After euthanasia was performed at the end of the experiment, middle colon tissue samples were collected for qPCR detection of genes related to inflammatory factors (TNF-α and IL-1β) and tight junction proteins (ZO-1 and Occludin).
(§3) (3) qPCR detection: The total RNA was extracted from colon tissues of the mice in each group using the Trizol method and then reverse-transcribed into cDNA. The cDNA was stored at −20° C. for later use. The relative mRNA transcriptional levels of the genes encoding the pro-inflammatory factors IL-1β and TNF-α, as well as the tight junction proteins ZO-1 and Occludin-1, in the colon of the mice in each group were detected using the qRT-PCR method (the primer sequences are shown in Table 7, and the internal reference gene was β-actin). Reaction program: 1) 95° C. for 3 min; 2) 95° C. for 10 s, 60° C. for 30 s, 95° C. for 15 s, and 60° C. for 1 min, 40 cycles in total; and 3) 95° C. for 10 s. Data analysis was performed using the 2^−ΔΔCT method.

[3] = system: Occludin; test: qPCR of colon tissue, 5-FU-induced diarrhea mice; conditions: 20 mg/kg i.g.; 5-FU model
Text: as §1, §2, §3

[4] = system: TNF-α; test: qPCR of colon tissue, 5-FU-induced diarrhea mice; conditions: 20 mg/kg i.g., 5-FU model
Text: as §1, §2, §3

[5] = system: ZO-1; test: qPCR of colon tissue, 5-FU-induced diarrhea mice; conditions: 20 mg/kg i.g.; 5-FU model
Text: as §1, §2, §3

[6] = system: mice with radiation enteritis; test: Diarrhea scoring, radiation enteritis model mice; conditions: 15 mg/kg i.g.
[7] = Body weight, radiation enteritis model mice; conditions: 15 mg/kg i.g.
Method: (§4) (1) Experimental design: Eighty male C57BL/6 mice (purchased from Chengdu GemPharmatech Co., Ltd.) were housed in an SPF-grade animal room. Based on the body weight, the aforementioned mice were randomly divided into 8 groups of 10: a normal control group (administration regimen: normal saline at 0.2 mL/mouse/day), a model control group (administration regimen: lyoprotectant at 0.2 mL/mouse/day), a loperamide group (administration regimen: loperamide at 15 mg/kg body weight), an LGG (Lactobacillus rhamnosus GG, Shaanxi Zelang Biotechnology Co., Ltd.) group (administration regimen: LGG at 1×10^9 CFU/mouse/day), a high-dose bacterial composition group (administration regimen: bacterial composition at 1×10^9 CFU/mouse/day), a medium-high-dose bacterial composition group (administration regimen: bacterial composition at 1×10^8 CFU/mouse/day), a medium-dose bacterial composition group (administration regimen: bacterial composition at 1×10^7 CFU/mouse/day), and a low-dose bacterial composition group (administration regimen: bacterial composition at 1×10^6 CFU/mouse/day). Except for the normal control group, all other groups of mice were subjected to a single whole abdominal X-ray irradiation at a dose of 11.5 Gy. The overall experimental period was 18 days, designated as D1 to D18. Each group was subjected to intragastric administration once daily for 17 consecutive days. Seven days after administration, irradiation was performed on D8, and dissection was conducted on D18.
(§5) During the experimental period, the body weight of the animals was measured daily, and general observations were recorded (the observation items included but were not limited to the animals' appearance signs, behaviors and activities, respiration, glandular secretion, fecal condition, etc.). The diarrhea condition of each animal after irradiation modeling was specifically observed and then recorded and scored. At the end of the experiment, the animals were euthanized, and the colorectal parts were taken, directly fixed in a 10% formaldehyde solution, stained with HE, and then subjected to pathological examination.

[8] = system: mice with radiation enteritis; test: Colorectal pathological examination (HE), radiation enteritis model mice; conditions: 15 mg/kg i.g.
Method: as §4, §5
(3) Pathological examination of intestinal tissues: The colorectal parts were directly fixed in a 10% formaldehyde solution, stained with HE, and then subjected to pathological examination.

[9] = system: 5-FU-induced tumor-bearing CID mice; test: Diarrhea scoring, 5-FU-induced tumor-bearing CID mice; conditions: 20 mg/kg i.g., tumor-bearing 5-FU model
Text: The bacterial composition used in Examples 10-12 were obtained by mixing five strains at equal CFU concentrations according to the method in Example 9. The CFU of the bacterial composition referred to in Examples 10-12 was the total CFU of the five strains.
(§6) Experimental design: Fifty male BALB/c mice (purchased from Chengdu GemPharmatech Co., Ltd.) were housed in an SPF-grade animal room. CT26 cells (purchased from Beijing BeNa Culture Collection) were subcutaneously inoculated into the right flank of each mouse at a dose of 5×10^6 cells/mouse in a volume of 0.1 mL. When the tumor volume reached about 100-150 mm^3, 42 mice were selected for the subsequent experiment. Based on the tumor volume, the aforementioned 42 mice were randomly divided into 7 groups of 6. The aforementioned 7 groups were as follows: a normal control group (administration regimen: lyoprotectant at 0.2 mL/mouse/day), a model control group (administration regimen: lyoprotectant at 0.2 mL/mouse/day), a positive control loperamide group (administration regimen: loperamide at 20 mg/kg body weight), a Zhengchangsheng group (administration regimen: Bacillus licheniformis at 2×10^8 CFU/mouse/day), a high-dose bacterial composition group (administration regimen: bacterial composition at 1×10^9 CFU/mouse/day), a medium-dose bacterial composition group (administration regimen: bacterial composition at 1×10^8 CFU/mouse/day), and a low-dose bacterial composition group (administration regimen: bacterial composition at 1×10^7 CFU/mouse/day). The day of grouping was designated as day 1 (D1) of the experiment, and intragastric administration was started on day 1 (D1) and performed once daily (QD) for 9 consecutive days. On days 3, 4, 5, and 6 of administration, the normal control group was intraperitoneally injected with normal saline at 0.2 mL/mouse, while the mice in all other groups were intraperitoneally injected with 5-FU (50 mg/kg body weight, 10 mL/kg body weight) for modeling. Compared with the normal control group, the tumor volumes of mice in each group were reduced after 5-FU injection.

[10] = system: 5-FU-induced tumor-bearing CID mice; test: Blood routine examination, 5-FU-induced tumor-bearing mouse model; conditions: 20 mg/kg i.g.; tumor-bearing 5-FU model
Method: as §6
The specific administration regimens are detailed in Table 18. After the end of the experiment, whole blood samples were collected from animals in each group through enucleation, and then subjected to blood routine examination using a five-classification blood cell analyzer for animals (Shenzhen Dymind Biotechnology Co., Ltd.).

Question: What does the source list for `CN(C)C(=O)C(CCN1CCC(O)(c2ccc(Cl)cc2)CC1)(c1ccccc1)c1ccccc1` [Loperamide, loperamide]?
Answer: D8 diarrhea score [1]: 0.08 ± 0.08; D9 diarrhea score [1]: 0.17 ± 0.11; Total diarrhea score [1]: 0.25 ± 0.18; IL-1β relative mRNA transcription level in colon tissue [2]: 1.26; Occludin relative mRNA transcription level in colon tissue [3]: 0.90; TNF-a relative mRNA transcription level in colon tissue [4]: 1.05; TNF-a relative mRNA transcription level in colon tissue ([4]; listed as loperamide): significantly reduce; ZO-1 relative mRNA transcription level in colon tissue [5]: 0.80; D17 total diarrhea score [6]: 9.80 ± 0.59; D17 total diarrhea score ([6]; listed as loperamide): significant improvements; D1 body weight [7]: 23.11 ± 0.20 g; D14 body weight [7]: 19.79 ± 0.14 g; D14 body weight change rate [7]: −14.37 ± −10.00%; D17 body weight [7]: 20.92 ± 0.16 g; D17 body weight change rate [7]: −9.48 ± −6.38%; D17 body weight ([7]; listed as loperamide): a trend toward restoring; Goblet cell (colorectal pathological score) [8]: 1.60 ± 0.08; Inflammatory infiltration (colorectal pathological score) [8]: 2.00 ± 0.00; Mucosal damage (colorectal pathological score) [8]: 1.60 ± 0.08; Pathological score (colorectal) [8]: 5.20 ± 0.15; Pathological score (colorectal) ([8]; listed as loperamide): an improvement trend; D1-D9 total diarrhea score [9]: 4.67 ± 0.56; D6 diarrhea score [9]: 0.33 ± 0.21; D7 diarrhea score [9]: 1.00 ± 0.00; D8 diarrhea score [9]: 1.33 ± 0.21; D9 diarrhea score [9]: 2.00 ± 0.37; D1-D9 total diarrhea score ([9]; listed as loperamide): a significant reduction; also recorded: significantly ameliorate diarrhea; D8 diarrhea score ([9]; listed as loperamide): a significant reduction; Hematocrit [10]: 43.17 ± 0.99%; Lymphocyte count [10]: 1.18 ± 0.29 10^9/L; Platelet count [10]: 216.67 ± 21.53 10^9/L; Red blood cell count [10]: 9.39 ± 0.23 10^12/L; White blood cell count [10]: 1.24 ± 0.30 10^9/L
